From patent US20250339360A1, “COSMETIC COMPOSITIONS COMPRISING RETINOIDS AND MOISTURIZERS AND METHODS FOR STABLIZING RETINOIDS” (ELC Management LLC, priority 2024, published 2025)

Assay: Retinoid storage stability in stability chamber, hydroxypinacolone retinoate analysed by UPLC/UV-VIS at 360 nm
Type: physicochemical
Details: 6-month testing period, 25° C. and 40° C., within measurement accuracy
Experimental: The above samples were tested under two sets of temperature conditions. Each sample was placed in a stability chamber maintained at either room temperature (25° C.±2° C.) or accelerated (elevated) temperature (40° C.±2° C.). Each stability chamber was maintained at a relative humidity of 60%+5%. Stability of the retinoid was monitored at various time points: initially, after one month, after two months, after three months, and after six months. Assessment of the retinoid stability was conducted by removing a sample from the stability chamber and analyzing for hydroxypinacolone retinoate by UPLC/UV-VIS (Waters ACQUITY UPLC H-Class PLUS System with a photodiode array (PDA) detector). A wavelength of 360 nm was used for analyses. The measured concentrations were determined with a measurement accuracy of about +10%. The initial and subsequent concentrations are believed to deviate from the expected 0.1 wt % due to some initial degradation of the stock hydroxypinacolone retinoate.

Hydroxypinacolone retinoate concentration over the testing period: remained essentially constant
Compound: CC1=C(/C=C/C(C)=C/C=C/C(C)=C/C(=O)OCC(=O)C(C)(C)C)C(C)(C)CCC1 [hydroxypinacolone retinoate]
